Experimental data from patent publication US12459899B2, “Isoquinolinone derivatives, method for preparing the same, and pharmaceutical composition for preventing or treating poly(ADP-ribose) polymerase-1-related diseases, comprising the same as active ingredient” (DIGMBIO. INC., priority 2019, dated 2025).
Where a name gives a salt, the structure may show the parent alone.

The compounds below were run against PARP-1 (poly[ADP-ribose] polymerase 1) enzyme (Homo sapiens (Human), UniProt P09874) (assay: PARP-1 (poly[ADP-ribose] polymerase 1) enzyme inhibitory ability, Trevigen assay kit). Details: 1 nM compound; read-out: PAR P-1 Inhibitory ability at 1 nM.
Sequence of PARP-1 (poly[ADP-ribose] polymerase 1) enzyme (P09874 whole entry): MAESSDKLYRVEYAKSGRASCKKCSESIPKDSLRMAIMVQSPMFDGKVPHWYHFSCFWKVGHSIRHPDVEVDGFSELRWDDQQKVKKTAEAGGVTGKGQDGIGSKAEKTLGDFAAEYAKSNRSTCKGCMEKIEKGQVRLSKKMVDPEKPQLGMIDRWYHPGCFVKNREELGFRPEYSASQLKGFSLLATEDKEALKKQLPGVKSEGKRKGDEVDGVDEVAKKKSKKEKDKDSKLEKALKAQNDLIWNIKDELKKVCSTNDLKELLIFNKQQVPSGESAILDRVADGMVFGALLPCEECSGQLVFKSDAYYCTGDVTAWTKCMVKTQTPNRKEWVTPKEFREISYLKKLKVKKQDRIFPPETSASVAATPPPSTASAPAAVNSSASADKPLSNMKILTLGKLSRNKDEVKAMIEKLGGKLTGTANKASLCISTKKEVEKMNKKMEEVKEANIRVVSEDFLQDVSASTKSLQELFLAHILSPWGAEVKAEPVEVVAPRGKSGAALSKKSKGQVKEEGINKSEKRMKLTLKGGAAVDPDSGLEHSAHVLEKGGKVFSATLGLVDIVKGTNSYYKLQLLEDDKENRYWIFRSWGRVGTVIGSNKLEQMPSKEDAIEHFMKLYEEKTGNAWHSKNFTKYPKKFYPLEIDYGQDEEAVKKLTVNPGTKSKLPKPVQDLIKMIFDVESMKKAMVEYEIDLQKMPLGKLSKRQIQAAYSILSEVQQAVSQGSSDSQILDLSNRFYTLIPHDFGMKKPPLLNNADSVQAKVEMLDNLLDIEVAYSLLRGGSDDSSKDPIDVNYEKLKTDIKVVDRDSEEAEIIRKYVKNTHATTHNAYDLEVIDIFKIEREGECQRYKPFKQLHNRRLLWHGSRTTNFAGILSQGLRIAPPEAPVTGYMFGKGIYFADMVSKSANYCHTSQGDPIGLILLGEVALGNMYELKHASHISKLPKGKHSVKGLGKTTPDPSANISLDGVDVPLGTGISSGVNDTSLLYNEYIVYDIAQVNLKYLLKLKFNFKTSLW
Format: biochemical
Description: In order to evaluate the PARP-1 (poly[ADP-ribose] polymerase 1) enzyme inhibitory ability of the compounds according to the present invention, an experiment was conducted as follows.
Specifically, in order to evaluate the PARP-1 (poly[ADP-ribose] polymerase 1) enzyme inhibitory ability of the compounds of Examples 1 to 276 according to the present invention, the PARP-1 (poly[ADP-ribose] polymerase 1) activity was investigated in the following manner using an assay kit purchased from Trevigen, Inc. (Catalog number: 4677-096-K). 50 μL of 1×PARP buffer (provided by Trevigen's kit) was dispensed into a 96-well plate coated with histones per each well, and then rehydrated for 30 minutes. After removing the 1×PARP buffer present in the well, PARP-1 (poly[ADP-ribose] polymerase 1) enzyme (0.5 unit/well) and 1 μM concentration or various concentrations of the compounds of Example 1 to 276 were added at room temperature and reacted for 10 minutes. Thereafter, each well was treated with 25 μL of 1×PARP cocktail (biotinylated NAD, activated DNA, provided by Trevigen's kit), and then reacted at room temperature for 1 hour. After the reaction was completed, each well was washed twice with PBS (7.5 mM Na2HPO4, 2.5 mM NaH2PO4, 145 mM NaCl) containing 0.1% triton X-100, and washed twice with PBS. Then, 50 μL of strep-HRP (streptavidin-linked peroxidase) was added and reacted at room temperature for 1 hour, and then washed twice with PBS containing 0.1% triton X-100, and washed twice with PBS. After removing all PBS, 50 μL of TACS-sapphire, a substrate, was added, and reacted at room temperature for 15 minutes while blocking the light. After the reaction was terminated by treatment with 50 μL of 5% phosphoric acid to each well, the absorbance was measured at 450 nm using a microplate reader Victor3 from PerkinElmer, Inc. to quantify the value.
Work on `N#Cc1ccc(N2CCN(CCCc3cc4cccc(F)c4c(=O)[nH]3)CC2)cn1` [Example 2, 5-(4-(3-(8-fluoro-1-oxo-1,2-dihydroisoquinolin-3-yl)propyl)piperazin-1-yl)picolinonitrile] yielded an inhibition at 0.001 µM of less than 50%. With `N#Cc1ccc(N2CCN(CCCc3cc4cccc(F)c4c(=O)[nH]3)CC2)nc1` [Example 3, 6-(4-(3-(8-fluoro-1-oxo-1,2-dihydroisoquinolin-3-yl)propyl)piperazin-1-yl)nicotinonitrile] the inhibition at 0.001 µM was less than 50%. In the case of `O=c1[nH]c(CCCN2CCN(c3ccc(C(F)(F)F)cc3)CC2)cc2cccc(F)c12` [Example 4, 8-fluoro-3-(3-(4-(4-(trifluoromethyl)phenyl)piperazin-1-yl)propyl)isoquinolin-1(2H)-one], the inhibition at 0.001 µM is reported as less than 50%. `N#Cc1ccc(N2CCN(CCCc3cc4cccc(F)c4c(=O)[nH]3)CC2)cc1F` [Example 5, 2-fluoro-4-(4-(3-(8-fluoro-1-oxo-1,2-dihydroisoquinolin-3-yl)propyl)piperazin-1-yl)benzonitrile] was tested, and the inhibition at 0.001 µM was less than 50%. `N#Cc1ccc(N2CCN(CCCc3cc4cccc(F)c4c(=O)[nH]3)CC2)cc1` [Example 6, 4-(4-(3-(8-fluoro-1-oxo-1,2-dihydroisoquinolin-3-yl)propyl)piperazin-1-yl)benzonitrile hydrochloride] gave an inhibition at 0.001 µM of 50 to 80%. `N#Cc1ccc(N2CC3CCC(C2)N3CCCc2cc3cccc(F)c3c(=O)[nH]2)cc1` [Example 7, 4-(8-(3-(8-fluoro-1-oxo-1,2-dihydroisoquinolin-3-yl)propyl)-3,8-diazabicyclo[3.2.1]octan-3-yl)benzonitrile] gave an inhibition at 0.001 µM of less than 50%. Work on `N#Cc1ccc(N2CCN(CCCc3cc4ccc(F)cc4c(=O)[nH]3)CC2)cc1` [Example 8, 4-(4-(3-(7-fluoro-1-oxo-1,2-dihydroisoquinolin-3-yl)propyl)piperazin-1-yl)benzonitrile] yielded an inhibition at 0.001 µM of 50 to 80%. Work on `O=c1[nH]c(CCCN2CCN(c3ccc(C(F)(F)F)cc3)CC2)cc2ccc(F)cc12` [Example 9, 7-fluoro-3-(3-(4-(4-(trifluoromethyl)phenyl)piperazin-1-yl)propyl)isoquinolin-1(2H)-one] yielded an inhibition at 0.001 µM of less than 50%. `N#Cc1ccc(N2CCN(CCCc3cc4ccc(F)cc4c(=O)[nH]3)CC2)cn1` [Example 10, 5-(4-(3-(7-fluoro-1-oxo-1,2-dihydroisoquinolin-3-yl)propyl)piperazin-1-yl)picolinonitrile] was tested, and the inhibition at 0.001 µM was 50 to 80%. `O=c1[nH]c(CCCN2CCN(c3cccc([N+](=O)[O-])c3)CC2)cc2ccc(F)cc12` [Example 11, 7-fluoro-3-(3-(4-(3-nitrophenyl)piperazin-1-yl)propyl)isoquinolin-1(2H)-one] showed an inhibition at 0.001 µM of less than 50%. `O=c1[nH]c(CCCN2CCN(c3ncccn3)CC2)cc2ccc(F)cc12` [Example 13, 7-fluoro-3-(3-(4-(pyrimidin-2-yl)piperazin-1-yl)propyl)isoquinolin-1(2H)-one] was tested, and the inhibition at 0.001 µM was less than 50%. `O=c1[nH]c(CCCN2CCN(c3cccc(OC(F)(F)F)c3)CC2)cc2ccc(F)cc12` [Example 16, 7-fluoro-3-(3-(4-(3-(trifluoromethoxy)phenyl)piperazin-1-yl)propyl)isoquinolin-1(2H)-one] was tested, and the inhibition at 0.001 µM was less than 50%. `O=c1[nH]c(CCCN2CCN(c3cccc(Cl)c3)CC2)cc2ccc(F)cc12` [Example 17, 3-(3-(4-(3-chlorophenyl)piperazin-1-yl)propyl)-7-fluoroisoquinolin-1(2H)-one] showed an inhibition at 0.001 µM of less than 50%. `COC(=O)c1cccc(N2CCN(CCCc3cc4ccc(F)cc4c(=O)[nH]3)CC2)c1` [Example 18, methyl 3-(4-(3-(7-fluoro-1-oxo-1,2-dihydroisoquinolin-3-yl)propyl)piperazin-1-yl)benzoate] gave an inhibition at 0.001 µM of less than 50%.

Same assay, conditions: PARP-1 enzyme activity
`N#Cc1ccc(N2CCN(CCCc3cc4ccc(F)cc4c(=O)[nH]3)CC2)cc1` [Example 8, 4-(4-(3-(7-fluoro-1-oxo-1,2-dihydroisoquinolin-3-yl)propyl)piperazin-1-yl)benzonitrile] gave an IC50 of 0.72 nM. `O=c1[nH]c(CCCN2CCN(c3ccc(F)cc3)CC2)cc2ccc(F)cc12` [Example 15, 7-fluoro-3-(3-(4-(4-fluorophenyl)piperazin-1-yl)propyl)isoquinolin-1(2H)-one] was tested, and the IC50 was 4.01 nM.

Same assay, conditions: PARP-1 enzyme activity; hydrochloride
`N#Cc1ccc(N2CCN(CCCc3cc4cccc(F)c4c(=O)[nH]3)CC2)cc1` [Example 6, 4-(4-(3-(8-fluoro-1-oxo-1,2-dihydroisoquinolin-3-yl)propyl)piperazin-1-yl)benzonitrile hydrochloride] showed an IC50 of 0.41 nM.
